Data reported in paper PMC5483439, “The Effect of Pungent and Tingling Compounds from Piper nigrum L. on Background K^+ Currents” (Frontiers in Pharmacology, 2017).

Tested on: mouse trigeminal neurons
Test: Calcium imaging on primary cultured mouse trigeminal neurons
Format: cell-based
Protocol: Trigeminal ganglia neurons were isolated from Swiss CD-1 mice (Charles River Laboratories, Sulzfeld, Germany). All experiments involving animals were carried out in accordance with the European Union Community Council’s guidelines and approved by the competent state office of the Federal Land of Northrhine Westphalia (file number 87-51.04.2010.A180). At postnatal day 2–5, the mice were sacrificed by decapitation. The brain was removed, and both trigeminal ganglia were excised. The ganglia were washed in PBS+/+ (Invitrogen, Karlsruhe, Germany) and collected in Leibovitz Medium (L15, Invitrogen) on ice. The ganglia were transferred to Dulbecco’s modified essential medium (DMEM) containing 0.025% collagenase (type IA, Sigma–Aldrich). The minced ganglia were incubated for 45 min in a humidified atmosphere (37°C, 95% humidity, 6% CO2) before trituration. The cell suspension was centrifuged at 1000 rpm for 4 min at room temperature and the pellet was resuspended in F-12 medium (Invitrogen; 31331-D-MEM/F-12, GlutaMax^TM) supplemented with 10% fetal bovine serum (FBS^TM; Invitrogen), 200 U/mL penicillin and 200 U/mL streptomycin. The cell suspension (50 μL) was then plated on poly L-lysine (0.01%) coated glass coverslips (30 mm, Sarstedt, Nümbrecht, Germany), placed in cell culture dishes (35 mm) and kept in a humidified atmosphere (37°C, 95% humidity, 6% CO2) for 1 h. Subsequently, F-12 medium (2 mL) supplemented with FBS (10%), 200 U/mL penicillin and 200 U/mL streptomycin was added to each dish. The cells were kept in an incubator (37°C, 95% humidity, 6% CO2) until use. The trigeminal ganglion neurons were incubated with the Ca^2+-sensitive reporter dye Fura-2/AM (Invitrogen, final concentration: 3 μM) 30–45 min before starting the experiment. […] The emitted light (510 nm) was detected with a 12-bit 1376 × 1032-pixel charge-coupled device camera (F-View II, Olympus), and Cell® imaging software (Olympus). The changes in intracellular calcium levels were calculated as the intensity ratio of f340/f380 [(E(510) at 340 nm illumination)/(E(510) at 380 nm illumination)]. […]

## O=C(/C=C/C=C/c1ccc2c(c1)OCO2)N1CCCCC1 [1a, piperine]
100 μM
  trigeminal neurons showing a calcium response: 68 out of 619
100 μM piperine with capsazepine 5 μM and HC-030031 20 μM, 25 of 37 neurons
  piperine-responsive neurons still responsive in the presence of TRP antagonists: 68%
100 μM piperine, 10 μM capsaicin, 35 of 68 neurons
  piperine-responsive neurons also capsaicin-responsive: 51%
